Peptide text beside a SMILES is read from it.
Experiments:
[1] = set-up: species or system C3H/S-strain mice; settings: mouse, in vivo
Protocol: Figure 8 NLS18-TEAD has anti-tumoral effect on breast cancer xenograft models. (a) C3H/S-strain mice subcutaneously inoculated with 4 × 10^5 TN60-UNLP cells were intraperitoneally treated with 5 mg/kg of NLS18-TEAD or NLS23-TEAD 5 days per week for 4 weeks. Control mice received NaCl. Tumor growth was monitored each other day. The average tumor volume of each group (8 mice per group) is shown (p < 0.018). (b) The weight of the animals and the organs upon 30 days of treatment with the peptides NLS18-TEAD or NLS23-TEAD is shown. Control non-treated mice are also shown. p and t statistic values are shown. […]

[2] = Peptide integrity in human serum (resistance to proteases degradation); format: in vitro ADME; settings: human serum 250 μl, 37 °C, different times, upon 6 h; MALDI-TOF MS; triplicate
Protocol: Figure 7 Stability of the new generated peptides in human serum. Peptides were incubated at 37 °C in human serum for different periods of time and their integrity (percentage of intact peptide) was analyzed by mass spectrometry (MS). Every measurement was performed in triplicate. Standard deviation is shown.
Peptides were incubated at 37 °C in 250 μl of human serum for several times. Samples were collected and peptide degradation stopped by freezing. Peptides were extracted from samples using the Proteo Miner Protein Enrichment System (Bio-Rad, California, USA). Percentage of intact peptide was estimated by mass spectrometry (MS) using MALDI-TOFF (Brucker Autoflex II, Massachusetts, USA) following their protocols. Measurements were performed in triplicates. MS data were analyzed using appropriated software (Clinprot tools, FLEx analysis, Brucker, Massachusetts, USA) as previously described[8],[9].

Structure (SMILES) | Clinical symptoms in the injected animals compared to control non-treated animals [1] | Stability to proteases degradation in human serum (percentage of intact peptide) [2]
CC(C)C[C@H](NC(=O)[C@H](CCCCN)NC(=O)[C@H](CCCCN)NC(=O)[C@H](CCCCN)NC(=O)[C@H](CCCCN)NC(=O)[C@@H]1CCCN1C(=O)[C@H](CCCCN)NC(=O)[C@H](CCCCN)NC(=O)[C@H](CCCCN)NC(=O)[C@H](Cc1c[nH]c2ccccc12)NC(=O)[C@H](CCCCN)NC(=O)[C@H](CCCCN)NC(=O)[C@H](Cc1c[nH]c2ccccc12)NC(=O)[C@H](CCCCN)NC(=O)[C@H](CCCCN)NC(=O)[C@H](CCCCN)NC(=O)[C@H](CCCCN)NC(=O)[C@H](CCCCN)NC(=O)[C@H](CCCNC(=N)N)NC(=O)[C@H](CCCCN)NC(=O)[C@@H](N)CCCNC(=N)N)C(=O)N[C@@H](CC(=O)O)C(=O)N[C@@H](CCCNC(=N)N)C(=O)N[C@@H](CC(C)C)C(=O)N[C@@H](CCC(N)=O)C(=O)N[C@@H](CC(C)C)C(=O)N[C@H](C(=O)N[C@@H](CCC(=O)O)C(=O)N[C@@H](Cc1ccccc1)C(=O)N[C@@H](CO)C(=O)N[C@@H](C)C(=O)N[C@@H](Cc1ccccc1)C(=O)N[C@H](C(=O)N[C@@H](CCC(=O)O)C(=O)N1CCC[C@H]1C(=O)N1CCC[C@H]1C(=O)N[C@@H](CC(=O)O)C(=O)N[C@@H](C)C(=O)N[C@H](C(=O)N[C@@H](CC(=O)O)C(=O)O)C(C)C)C(C)C)C(C)C [NLS23-TEAD] (H-RKRKKKKKWKKWKKKPKKKKLDRLQLVEFSAFVEPPDAVD-OH) | did not detected clinical symptoms | 
CC(C)C[C@H](NC(=O)[C@H](CCCCN)NC(=O)[C@H](CCCCN)NC(=O)[C@H](CCCCN)NC(=O)[C@H](CCCCN)NC(=O)[C@@H]1CCCN1C(=O)[C@H](Cc1c[nH]c2ccccc12)NC(=O)[C@H](CCCCN)NC(=O)[C@H](CCCCN)NC(=O)[C@H](Cc1c[nH]c2ccccc12)NC(=O)[C@H](CCCCN)NC(=O)[C@H](CCCCN)NC(=O)[C@H](CCCCN)NC(=O)[C@H](CCCCN)NC(=O)[C@H](CCCCN)NC(=O)[C@H](CCCNC(=N)N)NC(=O)[C@H](CCCCN)NC(=O)[C@@H](N)CCCNC(=N)N)C(=O)N[C@@H](CC(=O)O)C(=O)N[C@@H](CCCNC(=N)N)C(=O)N[C@@H](CC(C)C)C(=O)N[C@@H](CCC(N)=O)C(=O)N[C@@H](CC(C)C)C(=O)N[C@H](C(=O)N[C@@H](CCC(=O)O)C(=O)N[C@@H](Cc1ccccc1)C(=O)N[C@@H](CO)C(=O)N[C@@H](C)C(=O)N[C@@H](Cc1ccccc1)C(=O)N[C@H](C(=O)N[C@@H](CCC(=O)O)C(=O)N1CCC[C@H]1C(=O)N1CCC[C@H]1C(=O)N[C@@H](CC(=O)O)C(=O)N[C@@H](C)C(=O)N[C@H](C(=O)N[C@@H](CC(=O)O)C(=O)O)C(C)C)C(C)C)C(C)C [NLS18-TEAD] (H-RKRKKKKKWKKWPKKKKLDRLQLVEFSAFVEPPDAVD-OH) | did not detected clinical symptoms | constant stability
